Consider one compound from publication PMC8273887 (Journal of Medicinal Chemistry, 2021).

Series [1] deals with human erythrocytes. Description: Hemolysis analysis. Format: cell-based. To be noted: 1 h, 37 °C, absorbance 405 nm, 0.2–25 μM final concentration, two independent experiments. The source says: Considering the therapeutic potential of TFF3, it was important to determine any cytotoxic and hemolytic effects early on to avoid problems in later stages of drug development. We therefore assessed cytotoxicity on HEK-293 cells and hemolytic effects in human erythrocytes. We treated the cells with TFF3(C^57Acm) and TFF3 homodimer and used resazurin, a blue dye that produces strong fluorescence when reduced by living cells, as the readout of the number of viable cells.[60] In the hemolytic assay, we evaluated hemoglobin release, an indicator of erythrocyte lysis, upon exposure to the peptides.
Monomeric and homodimeric TFF3 were serially diluted twofold in 0.9% NaCl and seeded (25 μL) in a 384-well polypropylene plate (0.2–25 μM final concentration). […] The cells were counted using a Neubauer hemocytometer and then diluted to 1 × 10^8/mL in 0.9% NaCl. […] Following incubation, the plates were centrifuged at 1000g for 10 min to pellet cells and debris and then 25 μL of the supernatant was transferred into a 384-well flat-bottom PS plate and absorbance (Abs) was read at 405 nm using a Tecan M1000 Pro monochromator plate reader. Percent hemolysis was calculated using the following equation: Hemolysis (%) = (Abssample – Absnegative/Abspositive – Absnegative) × 100. […]

Series [2] concerns the target T1, LINGO2 (Homo sapiens, UniProt Q7L985).
T1 construct: expressed in transfected cells; host or cells: HEK-293, transient transfection by the calcium phosphate method
T1 sequence (Q7L985 28-606) 1: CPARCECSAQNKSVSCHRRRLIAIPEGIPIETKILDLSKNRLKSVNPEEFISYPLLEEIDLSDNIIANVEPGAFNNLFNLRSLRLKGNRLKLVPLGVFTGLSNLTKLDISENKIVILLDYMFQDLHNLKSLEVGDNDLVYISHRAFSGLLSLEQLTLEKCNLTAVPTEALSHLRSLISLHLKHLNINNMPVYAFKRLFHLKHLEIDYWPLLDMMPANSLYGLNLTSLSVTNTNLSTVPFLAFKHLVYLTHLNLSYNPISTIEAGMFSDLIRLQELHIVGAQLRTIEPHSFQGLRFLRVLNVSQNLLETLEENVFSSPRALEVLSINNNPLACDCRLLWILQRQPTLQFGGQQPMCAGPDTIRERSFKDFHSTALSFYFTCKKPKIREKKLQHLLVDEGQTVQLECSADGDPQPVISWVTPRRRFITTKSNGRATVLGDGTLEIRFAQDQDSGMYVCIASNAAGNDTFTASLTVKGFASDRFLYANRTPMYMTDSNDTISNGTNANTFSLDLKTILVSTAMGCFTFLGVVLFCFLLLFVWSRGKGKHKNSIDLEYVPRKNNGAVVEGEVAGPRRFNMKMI
T1 sequence (Q7L985 28-606) 2: T1 sequence (Q7L985 28-606) 1
Kind of series: BRET assay of LINGO2 dimerization in HEK-293 cells. As to conditions: HEK-293 coexpressing LINGO2-YFP and LINGO2-Rluc; 0.1–10 μM peptide, 20 min incubation; coelenterazine 5 μM; n = 4. The format is cell-based. The source says:
LINGO2 has also been put forward as a potential TFF3 receptor.[38] We thus evaluated whether TFF3(C^57Acm) or TFF3 homodimer could disturb LINGO2 dimerization via a bioluminescence resonance energy transfer (BRET) assay. This method allows the study of protein interactions using energy transfer between a light-emitting enzyme and a fluorescent acceptor protein.[65] LINGO2 fused with Renilla luciferase (Rluc; protein donor) or yellow fluorescent protein (YFP; protein acceptor) were co-expressed in HEK-293 cells and BRET signal detected after adding the luminescent substrate coelenterazine. […] We then evaluated whether the TFF3 constructs could promote changes of this basal BRET signal by inducing conformational change within the dimers and/or change the dimerization state of LINGO2.
HEK-293 cells were cultured with 10% FBS at 37 °C and 5% CO2 in DMEM for 72–96 h. […] Then, total luminescence was measured by following coelenterazine addition (final concentration 5 μM). BRET signal was measured in four repeats and calculated by determining the emission ratio at 530/480 nm on cells coexpressing donor and acceptor and by subtracting the emission background BRET signal ratio (530/480 nm) of cells expressing only donor protein, then multiplying by 1,000 to obtain results in millBRET units (mBU).
(In general: In BRET a luciferase serves as donor, and the signal depends on an acceptor being close.)

Each structure is given as a SMILES string.

Turning to `CC[C@H](C)[C@@H]1NC(=O)[C@H](CCCNC(=N)N)NC(=O)[C@H](CO)NC(=O)[C@H](CC(=O)O)NC(=O)[C@H](Cc2ccccc2)NC(=O)[C@@H]2CSSC[C@H](NC(=O)[C@H](CCC(N)=O)NC(=O)[C@H](CC(N)=O)NC(=O)[C@H](C)NC(=O)[C@H](CO)NC(=O)[C@H](CC(C)C)NC(=O)CNC(=O)[C@@H](NC(=O)[C@H](Cc3ccc(O)cc3)NC(=O)[C@H](CCC(=O)O)NC(=O)[C@@H](N)CCC(=O)O)C(C)C)C(=O)N[C@@H](C)C(=O)N[C@@H](C(C)C)C(=O)N3CCC[C@H]3C(=O)N[C@@H](C)C(=O)N[C@@H](CCCCN)C(=O)N[C@@H](CC(=O)O)C(=O)N[C@@H](CCCNC(=N)N)C(=O)N[C@@H](C(C)C)C(=O)N[C@@H](CC(=O)O)C(=O)N[C@H]3CSSC[C@H](NC(=O)CNC(=O)[C@H](CCCNC(=N)N)NC(=O)[C@H](CC(N)=O)NC(=O)[C@H](CC(N)=O)NC(=O)[C@H](CSSC[C@@H](C(=O)N[C@@H](Cc4ccccc4)C(=O)N[C@@H](CCCCN)C(=O)N4CCC[C@H]4C(=O)N[C@@H](CC(C)C)C(=O)N[C@@H](CCC(N)=O)C(=O)N[C@@H](CCC(=O)O)C(=O)N[C@@H](C)C(=O)N[C@@H](CCC(=O)O)C(=O)N[C@@H](CSCNC(C)=O)C(=O)N[C@H](C(=O)N[C@@H](Cc4ccccc4)C(=O)O)[C@@H](C)O)NC(=O)[C@H](Cc4c[nH]c5ccccc45)NC(=O)[C@@H]4CCCN4C(=O)[C@H](C(C)C)NC(=O)CNC(=O)[C@@H]4CCCN4C1=O)NC(=O)[C@H](CCC(=O)O)NC(=O)[C@H](CCCCN)NC(=O)[C@@H]1CCCN1C(=O)[C@H]([C@@H](C)O)NC(=O)[C@H](C(C)C)NC(=O)[C@H](Cc1c[nH]cn1)NC(=O)[C@@H]1CCCN1C(=O)[C@H](Cc1ccc(O)cc1)NC(=O)CNC3=O)C(=O)N2` [TFF3(C^57Acm)], in series [1], the “concentration up to which no hemolytic effect was displayed” value was > 25 µM. The “modification of LINGO2 BRET signal” value in series [2] was “no statistically significant (p > 0.05) modification of BRET signal”.
